Source: US20090215725A1, “Substituted 4-aminocyclohexane derivatives” (GRUNENTHAL GMBH, priority 2008, published 2009)

Tested on: Male Sprague Dawley rats
Test: Chung model: mononeuropathic pain after spinal nerve ligation (mechanical allodynia, von Frey withdrawal threshold)
Assay type: in vivo
Settings: rat, FIG. 1

## CN(C)C1(c2ccccc2)CCC(COCc2c[nH]c3ccc(F)cc23)CC1 (stereo not drawn) [Example 10, 1-Phenyl-4-(((5-fluoro-1H-indol-3-yl)methoxy)methyl)-N,N-dimethylcyclohexanamine]
Contralateral rear paw, tested dose
  effect on the undamaged, contralateral side: only a very small and statistically insignificant effect
Ipsilateral rear paw, spinal nerve ligation, allodynia fall from approx. 55 g to 25 g
  rise in the withdrawal threshold: over 40 g
Ipsilateral side, spinal nerve ligation
  allodynia condition (effectiveness in neuropathic pain): almost completely relieved
